Drawing on patent US20050074777A1, “Novel cell-surface estrogen receptor and related compositions and methods” (priority 2002, published 2005), this text covers Kd and DES-sensitive estrogen binding for one molecule.

For experiment [1], the target named is ER-X (plasma-membrane estrogen binding site of P7 ERKO and wild-type neocortex). The experiment in a line: 3H-estradiol saturation binding to Percoll-purified neocortical plasma-membranes. On the set-up: species or system mouse. Particulars: Percoll-purified plasma-membranes from P7 ERKO and wild-type neocortex, 50 μg/tube, 18 hours at 4° C.; read-out: equilibrium dissociation constant, Kd. Here is the method:
Binding of ^3H estradiol to Percoll®-purified plasma-membranes from P7 ERKO and wild-type mouse neocortex. (a) Identical amounts of membrane protein (50 μg/tube) were incubated with varying concentrations of ^3H estradiol (0.3-8 nM) for 18 hours at 4° C. The reaction was terminated by addition of hydroxylapatite (HAP). The membranes and HAP were sedimented by centrifugation in a microfuge, and the pellet washed 4 times to remove free steroid. Radioactivity in the pellets was extracted with ethanol and counted. […] (b) Specificity of the binding site in Percoll®-purified membranes from P7 ERKO mouse neocortex. […] Bound ^3H estradiol was separated by sedimentation with HAP and counted at an efficiency of 50%. Data represent the number of bound counts (after subtraction of HAP-only blank control tubes, containing no membrane protein) expressed as the means +/-S.D. of triplicate determinations. The horizontal dashed line indicates the level of non-specific binding observed in the presence of 1 μM DES. Caveolar-like membrane (CLM) preparation. Membrane fractions were prepared by adapting the detergent-free method of Smart et al. (Smart, 1995). […] The ethanol supernatants were transferred to liquid scintillation fluid (5 ml) and counted. […] Specific binding was calculated by subtracting non-specific from total binding.

In experiment [2] the test system is estrogen-binding protein (ER-X). The experiment in a line: DES-sensitive 3H-estradiol binding in CLM preparations and lysates. Further details: species or system mouse. Here is the method:
Caveolar-like membrane (CLM) preparation. Membrane fractions were prepared by adapting the detergent-free method of Smart et al. (Smart, 1995). Briefly, pools of 40-50 P7 ERKO neocortices were homogenized in 20 mM Tricine, pH 7.8 buffer, containing 1 mM EDTA, 0.25M sucrose and 1 mM dithiothreitol (TESD buffer), then centrifuged at 1000×g at 4° C. for 10 minutes. The pellet was resuspended in TESD buffer, re-centrifuged, and the supernatants pooled. The combined supernatants were subjected to Percoll® gradient fractionation in the same buffer to isolate the plasma membrane fraction. In some binding experiments (indicated below), Percoll® purified plasma membranes were used without further fractionation. For preparation of CLMs, plasma-membranes were sonicated and further separated by centrifugation on a linear 20% to 10% OptiPrep (iodixanol) gradient (Nycomed Pharma AS, Oslo, Norway). Based upon their light buoyant density, CLMs were separated and purified from non-CLMs using two OptiPrep density gradients. […] Electrophoretically separated CLMs on PVDF membranes were probed with antibodies specific for ER-α ([…], UBI; MC20, Santa Cruz), ER-β (Zymed), flotillin (BD Transduction Labs) and other caveolar-resident proteins (PKC-α and PKC-γ, BD Transduction Labs) and non-caveolar-resident proteins (paxillin, BD Transduction Labs). Estrogen binding assay. Duplicate aliquots of 1 mg each of protein lysate from ERKO P7 neocortex or wild-type adult uterus were pre-cleared for 30 minutes using anti-rabbit-IgG-coated magnetic beads (Dynal AS). Pre-cleared protein lysates were immunoprecipitated with anti-ER-α antibodies (6F11, Novocastra; or MC20, Santa Cruz) at 4° C. overnight. […] NEN Life Sciences, Boston, Mass.) at 4° C. for 18 hours. The incubation was terminated by adsorption of the binding sites onto an equal volume of hydroxylapatite (HAP) slurry in TESD buffer. HAP pellets were washed four times with Tris-buffered saline containing 0.2% Tween-20 buffer and extracted with 1 ml absolute ethanol overnight at room temperature. The ethanol supernatants were transferred to liquid scintillation fluid (5 ml) and counted. Control tubes, used in assessing HAP adsorption of free steroid, contained HAP and the same buffer constituents, without addition of the membranes. Non-specific binding was assayed in the membranes using the same amount of radioactive ligand plus 200-fold molar excess of unlabeled diethylstilbestrol (DES) (Sigma-Aldrich). Specific binding was calculated by subtracting non-specific from total binding.

With `C[C@]12CC[C@@H]3c4ccc(O)cc4CC[C@H]3[C@@H]1CC[C@@H]2O` [^3H-estradiol, 2,4,6,7, 16, 17-^3H estradiol], the Kd in experiment [1] was about 1.6 nM. For the same molecule, the DES-sensitive estrogen binding was 9.94 fmol/mg lysate protein in experiment [2] (P7 ERKO neocortical lysates); 282.12 fmol/mg CLM protein in experiment [2] (neocortical CLM preparations from P7 ERKO mice, 10 nM 3H-estradiol); 38.85 fmol/mg lysate protein in experiment [2] (wild-type adult uterine lysates).

The term Kd denotes the concentration at which binding is half-saturated.
